In assay [1] the test system is BM-MSC. The assay is described as follows: Tuj1 immunochemical assay, BM-MSC. It counts as cell-based, human. Particulars: 10, 20 or 30 μM, 5 days. Here is the method: (§1) To determine whether transdifferentiation into ciNSC5, neural progenitor cells, occurred similarly even in MSCs of different origins when human UCB-MSCs were treated with YJ101, YJ102, or YJ103 for 5 days, the expression of neuronal markers in differentiated ciNSC5 was confirmed by immunochemical assay using MSCs from human adipose-derived mesenchymal stem cells (AD-MSCs), human bone marrow-derived mesenchymal stem cells ([…]) and human umbilical cord blood-derived mesenchymal stem cells (UCB-MSCs; Promo Cells). Specifically, AD-MSC (StemPro™ Human Adipose-Derived Stem Cell, Gibco, Passage #6) was incubated in a MesenPRO RS™ medium, BM-MSC (ATCC, Passage #6) was incubated in a Mesenchymal Stem Cell Basal Medium for Adipose, Umbilical and Bone Marrow-derived MSC (Cat. PCS-500-030, ATCC) medium, and UCB-MSC (Promo Cell, Passage #6) was incubated in a CellCor™ CD MSC (Cat. YSP001, Xell Therapeutics) medium, and then dispensed at 2.1×10^4 cells/well in a 12-well plate with an 18 mm cover glass (circular) (DMSO control group was dispensed at 3.5×10^3 cells/well). […] The culture medium was removed, washed with PBS, and then fixed with 4% paraformaldehyde at room temperature for 10 minutes. After washed three times with PBS, the cells were permeabilized with PBS-T containing 0.5% Triton X-100 for 10 minutes, washed with PBS-T three times for 10 minutes each, and then blocked with a blocking solution (PBS-T containing 5% BSA and 5% goat serum) for 1 hour. Thereafter, the cells were treated with anti-Tuj1 antibody (Cat. 801201, BioLegend) diluted 1/5000 in a blocking solution and incubated at 4° C. overnight. The next day, the cells were washed 10 times for 10 minutes each with PBS-T, and then treated with anti-mouse IgG-cy3 diluted 1/2000 in a blocking solution, and incubated for 1 hour in dark conditions. Next, the cells were washed 10 times for 10 minutes each with PBS-T, mounted with a mounting solution containing DAPI, and then observed with a confocal microscope.

In assay [2] the test system is HES1, Sox2 and OCT4 gene promoters (CtBP1, CtBP1-LSD1 complex). The assay is described as follows: ChIP assay, target genes of CtBP1-YJ102. The assay is classed as cell-based, human. Particulars: YJ102, 2 days, UCB-MSC. The protocol: To identify a target gene of CtBP1-YJ102 in human UCB-MSC, chromatin immunoprecipitation (ChIP) assay was performed. Specifically, 2×10^6 human UCB-MSCs were dispensed into a 100 mm culture dish, treated with 10 μl of YJ102 (30 mM) or DMSO (control) the next day, and incubated for 2 days. For cross-linking and DNA sharing, the cells were added with formaldehyde to be 1% to the culture dish in which UCB-MSCs were incubated and incubated at 37° C. for 10 minutes to be fixed. The culture medium was removed and washed twice with PBS containing a protease inhibitor to collect the cells. The cells were centrifuged at 3000 rpm at 4° C. for 5 minutes to remove the supernatant, and the cells were added with an SDS lysis buffer containing a protease inhibitor, incubated on ice for 10 minutes, and lysed by ultrasound. The cells were centrifuged at 13,000 rpm at 4° C. for 10 minutes, the supernatant was transferred to a new microcentrifuge tube, and added with 1/10 volume of ChIP Dilution Buffer. Thereafter, DNA was purified and subjected to agarose gel electrophoresis to confirm that the DNA was shared at 200 to 1000 bp. In addition, for chromatin immunoprecipitation, the Protein G agarose slurry was washed with PBS, blocked with 1 ml of 1% BSA, and then washed with PBS, added with a cell lysate lysed by ultrasound and primary antibodies included anti-CtBP1 antibody (Cat. 07-306, Millipore), anti-LSD1 antibody (Cat. A1156, Abclonal), and Normal rabbit IgG (Cat. 12-370, Merck Millipore) (control group) at 1 μg each, and then incubated using a rotator overnight at 4° C. The next day, the supernatant was removed by centrifugation, and DNA-antibody-agarose beads were washed once with Low Salt Immune Complex Wash Buffer; High Salt Immune Complex Wash Buffer; and LiCl Immune Complex Wash Buffer in sequence, and then washed twice with 1×TE. The DNA-antibody-agarose beads were added with 250 μl of elution buffer (1% SDS, 0.1M NaHCO3), incubated at room temperature for 15 minutes using a rotator, and centrifuged, and the supernatant was transferred to a new microcentrifuge tube. The elution process was repeated one more time and the eluate was mixed. The eluate was added with 20 μl of 5 M NaCl, heated at 65° C. for 4 hours, and then added with 10 μl of 0.5 M EDTA, 20 μl of 1 M Tris-HCl (pH 6.5), and 2 μl of proteinase K (10 mg/ml) and incubated at 45° C. for 1 hour. Phenol/chloroform extraction and ethanol precipitation were performed, the DNA pellet was resuspended in DW, and then real-time quantitative PCR was performed using primers shown in Table 2 below.

In assay [3] the test system is UCB-MSC (Promo Cell). The assay is described as follows: Tuj1 immunochemical assay, UCB-MSC (Promo Cell). It counts as cell-based, human. Particulars: 10, 20 or 30 μM, 5 days. Here is the method:
as §1

The subject of assay [4] is human UCB-MSCs. The assay is described as follows: Tuj1 immunochemical assay with CtBP inhibitors. The assay is classed as cell-based. Particulars: 30 μM, 5 days. The protocol:
To determine CtBP1-mediated ciNSC5 differentiation by YJ102 in human UCB-MSCs, a CTBP1 mechanism by treatment with NSC95397 or 4-methylthio-2-oxobutanoate (MTOB) was analyzed by immunochemical assay. Specifically, UCB-MSCs were dispensed at 2.1×10^4 cells/well in a 12-well plate containing an 18 mm cover glass (circular) (a DMSO control group was dispensed at 3.5×10^3 cells/well). […] The culture medium was removed, washed with PBS, and fixed with 4% paraformaldehyde at room temperature for 10 minutes. After washed three times with PBS, the cells were permeabilized with PBS-T containing 0.5% Triton X-100 for 10 minutes, washed with PBS-T three times for 10 minutes each, and then blocked with a blocking solution (PBS-T containing 5% BSA and 5% goat serum) for 1 hour. Thereafter, the cells were treated with anti-Tuj1 antibody (Cat. 801201, BioLegend) diluted 1/5000 in a blocking solution and incubated at 4° C. overnight. The next day, the cells were washed 10 times for 10 minutes each with PBS-T, and then treated with anti-mouse IgG-cy3 (Cat. 111-165-003, Jackson ImmunoResearch) diluted 1/2000 in a blocking solution, and incubated for 1 hour in dark conditions. Next, the cells were washed 10 times for 10 minutes each with PBS-T, mounted with a mounting solution containing DAPI, and then observed with a confocal microscope.

The text below walks through data of patent publication US20250027041A1, “COMPOSITION FOR INDUCING TRANSDIFFERENTIATION AND STEM CELLS TREATED THEREWITH” (YJ CERAPEUTICS INC., priority 2021, published 2025).

On to `CCc1ccc(N(C(=O)COC)c2nc3cc(Cl)ccc3o2)cc1` [YJ102], for which the “expression of Tuj1” value in assay [1] is on record as “increased”. Further, in assay [2], the “CtBP1-LSD1 complex binding to Sox2 gene promoter” value is “bound to a Sox2 gene promoter”, the “CtBP1 binding to HES1 gene promoter” value is “increased”, the HES1 expression entry is recorded as “decrease HES1 expression” and the OCT4 expression entry was “induce the expression of OCT4”. Besides, in assay [2], the Sox2 expression entry is “increase Sox2 expression” and the “amount of CtBP1-LSD1 complex binding to OCT4 gene promoter” value is “increased”. Also, the “expression of Tuj1” value in assay [3] is reported as “increased”. In assay [4], the “differentiation of UCB-MSCs into ciNSC5 through CtBP1 regulation” value was “differentiated UCB-MSCs into ciNSC5”.
